Assay results taken from patent US9556179B2 (BRISTOL-MYERS SQUIBB COMPANY, priority 2012, dated 2017).

Assays:
[1] = target: CK1δ (Homo sapiens (Human), UniProt P48730); assay: CK1δ kinase assay (Caliper LABCHIP electrophoretic separation of fluoresceinated peptide substrate and product); format: biochemical; conditions: 200 pM enzyme, 50 μM ATP, 22 hours at room temperature
Protocol: (§1) CK1ε and CK1δ Kinase Assays
(§2) The kinase assay was performed in V-bottom 384-well plates. […] The reaction was incubated at room temperature for 22 hours and terminated by adding 45 μl of 35 mM EDTA to each sample. The reaction mixture was analyzed on the Caliper LABCHIP®3000 (Caliper, Hopkinton, Mass.) by electrophoretic separation of the unphosphorylated substrate and phosphorylated product. […] Compounds were dissolved at 10 mM in dimethylsulfoxide (DMSO) and evaluated at eleven concentrations. IC50 values were derived by non-linear regression analysis.

[2] = target: CK1ε (Homo sapiens (Human), UniProt P49674); assay: CK1ε kinase assay (Caliper LABCHIP electrophoretic separation of fluoresceinated peptide substrate and product); format: biochemical; conditions: 200 pM enzyme, 50 μM ATP, 22 hours at room temperature
Sequence of CK1ε (P49674 whole entry): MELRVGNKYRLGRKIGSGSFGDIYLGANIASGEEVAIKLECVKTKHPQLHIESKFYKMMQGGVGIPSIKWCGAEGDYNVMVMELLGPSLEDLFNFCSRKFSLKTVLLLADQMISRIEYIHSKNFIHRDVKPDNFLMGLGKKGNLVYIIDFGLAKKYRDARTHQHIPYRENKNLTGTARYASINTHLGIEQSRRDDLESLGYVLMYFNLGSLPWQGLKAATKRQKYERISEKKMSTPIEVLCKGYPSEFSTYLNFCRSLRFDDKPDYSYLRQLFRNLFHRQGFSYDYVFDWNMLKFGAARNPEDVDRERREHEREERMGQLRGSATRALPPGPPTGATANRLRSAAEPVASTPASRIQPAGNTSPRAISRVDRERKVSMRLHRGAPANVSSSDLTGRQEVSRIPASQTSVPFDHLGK
Protocol: as §1, §2

Sequence of CK1δ (P48730 whole entry): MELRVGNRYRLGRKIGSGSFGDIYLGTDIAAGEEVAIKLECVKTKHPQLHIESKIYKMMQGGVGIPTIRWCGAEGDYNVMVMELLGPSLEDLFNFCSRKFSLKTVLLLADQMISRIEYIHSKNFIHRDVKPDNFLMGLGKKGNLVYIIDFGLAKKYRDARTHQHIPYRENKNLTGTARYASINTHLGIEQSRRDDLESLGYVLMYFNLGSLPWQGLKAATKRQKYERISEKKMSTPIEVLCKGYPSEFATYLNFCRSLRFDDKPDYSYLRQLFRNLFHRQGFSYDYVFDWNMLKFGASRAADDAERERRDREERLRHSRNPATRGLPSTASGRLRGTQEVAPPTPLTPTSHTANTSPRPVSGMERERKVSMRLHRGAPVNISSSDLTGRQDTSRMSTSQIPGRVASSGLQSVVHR

SMILES	IC50 [1]	IC50 [2]
O=C(Nc1cn2nc(-c3c(-c4ccc(F)cc4)ncn3C3CCN(CCCF)CC3)ccc2n1)c1ccnc(F)c1 [Compound 33, 2-fluoro-N-(6-(4-(4-fluorophenyl)-1-(1-(3-fluoropropyl)piperidin-4-yl)-1H-imidazol-5-yl)imidazo[1,2-b]pyridazin-2-yl)isonicotinamide]	0.378 nM	1.9 nM
COCCN1CCC(n2cnc(-c3ccc(F)cc3)c2-c2ccc3nc(NC(=O)c4ccnc(F)c4)cn3n2)CC1 [Compound 34, 2-fluoro-N-(6-(4-(4-fluorophenyl)-1-(1-(2-methoxyethyl)piperidin-4-yl)-1H-imidazol-5-yl)imidazo[1,2-b]pyridazin-2-yl)isonicotinamide]	0.136 nM	12.4 nM
O=C(Nc1cn2nc(-c3c(-c4ccc(F)cc4)ncn3C3CCN(CC(F)(F)F)CC3)ccc2n1)c1ccnc(F)c1 [Compound 35, 2-fluoro-N-(6-(4-(4-fluorophenyl)-1-(1-(2,2,2-trifluoroethyl)piperidin-4-yl)-1H-imidazol-5-yl)imidazo[1,2-6]pyridazin-2-yl)isonicotinamide]	0.527 nM	7.22 nM
N#CCCN1CCC(n2cnc(-c3ccc(F)cc3)c2-c2ccc3nc(NC(=O)c4ccnc(F)c4)cn3n2)CC1 [Compound 36, N-(6-(1-(1-(2-cyanoethyl)piperidin-4-yl)-4-(4-fluorophenyl)-1H-imidazol-5-yl)imidazo[1,2-b]pyridazin-2-yl)-2-fluoroisonicotinamide]	0.197 nM	1.58 nM
O=C(Nc1cn2nc(-c3c(-c4ccc(F)cc4)ncn3C3CCN(C[C@@H](O)C(F)(F)F)CC3)ccc2n1)c1ccnc(F)c1 [Compound 37, (R)-2-fluoro-N-(6-(4-(4-fluorophenyl)-1-(1-(3,3,3-trifluoro-2-hydroxypropyl)piperidin-4-yl)-1H-imidazol-5-yl)imidazo[1,2-b]pyridazin-2-yl)isonicotinamide]	0.296 nM	1.27 nM
O=C(Nc1cn2nc(-c3c(-c4ccc(F)cc4)ncn3C3CCN(C[C@H](O)C(F)(F)F)CC3)ccc2n1)c1ccnc(F)c1 [Compound 38, (S)-2-fluoro-N-(6-(4-(4-fluorophenyl)-1-(1-(3,3,3-trifluoro-2-hydroxypropyl)piperidin-4-yl)-1H-imidazol-5-yl)imidazo[1,2-b]pyridazin-2-yl)isonicotinamide]	0.292 nM	0.305 nM
O=C(Nc1cn2nc(-c3c(-c4ccc(F)cc4)ncn3C3CCN(C(=O)c4ccon4)CC3)ccc2n1)c1ccnc(F)c1 [Compound 39, 2-fluoro-N-(6-(4-(4-fluorophenyl)-1-(1-(isoxazole-3-carbonyl)piperidin-4-yl)-1H-imidazol-5-yl)imidazo[1,2-b]pyridazin-2-yl)isonicotinamide]	1.93 nM	2.22 nM
NCC(=O)N1CCC(n2cnc(-c3ccc(F)cc3)c2-c2ccc3nc(NC(=O)c4ccnc(F)c4)cn3n2)CC1 [Compound 40, N-(6-(1-(1-(2-aminoacetyl)piperidin-4-yl)-4-(4-fluorophenyl)-1H-imidazol-5-yl)imidazo[1,2-b]pyridazin-2-yl)-2-fluoroisonicotinamide]	0.085 nM	0.984 nM
O=C(Nc1cn2nc(-c3c(-c4ccc(F)cc4)ncn3C3CCN(C(=O)CC(F)(F)F)CC3)ccc2n1)c1ccnc(F)c1 [Compound 42, 2-fluoro-N-(6-(4-(4-fluorophenyl)-1-(1-(3,3,3-trifluoropropanoyl)piperidin-4-yl)-1H-imidazol-5-yl)imidazo[1,2-b]pyridazin-2-yl)isonicotinamide]	2.79 nM	2.93 nM
O=C(Nc1cn2nc(-c3c(-c4ccc(F)cc4)ncn3C3CCN(C(=O)c4cscn4)CC3)ccc2n1)c1ccnc(F)c1 [Compound 44, 2-fluoro-N-(6-(4-(4-fluorophenyl)-1-(1-(thiazole-4-carbonyl)piperidin-4-yl)-1H-imidazol-5-yl)imidazo[1,2-b]pyridazin-2-yl)isonicotinamide]	0.295 nM	1.23 nM
O=C(Nc1cn2nc(-c3c(-c4ccc(F)cc4)ncn3C3CCN(C(=O)c4cc(C5CC5)on4)CC3)ccc2n1)c1ccnc(F)c1 [Compound 45, N-(6-(1-(1-(5-cyclopropylisoxazole-3-carbonyl)piperidin-4-yl)-4-(4-fluorophenyl)-1H-imidazol-5-yl)imidazo[1,2-b]pyridazin-2-yl)-2-fluoroisonicotinamide]	1.98 nM	16.4 nM
N#CCC(=O)N1CCC(n2cnc(-c3ccc(F)cc3)c2-c2ccc3nc(NC(=O)c4ccnc(F)c4)cn3n2)CC1 [Compound 46, N-(6-(1-(1-(2-cyanoacetyl)piperidin-4-yl)-4-(4-fluorophenyl)-1H-imidazol-5-yl)imidazo[1,2-b]pyridazin-2-yl)-2-fluoroisonicotinamide]	0.198 nM	0.743 nM
COCC(=O)N1CCC(n2cnc(-c3ccc(F)cc3)c2-c2ccc3nc(NC(=O)c4ccnc(F)c4)cn3n2)CC1 [Compound 47, 2-fluoro-N-(6-(4-(4-fluorophenyl)-1-(1-(2-methoxyacetyl)piperidin-4-yl)-1H-imidazol-5-yl)imidazo[1,2-b]pyridazin-2-yl)isonicotinamide]	0.225 nM	1.1 nM
O=C(Nc1cn2nc(-c3c(-c4ccc(F)cc4)ncn3C3CCN(C(=O)c4ccno4)CC3)ccc2n1)c1ccnc(F)c1 [Compound 48, 2-fluoro-N-(6-(4-(4-fluorophenyl)-1-(1-(isoxazole-5-carbonyl)piperidin-4-yl)-1H-imidazol-5-yl)imidazo[1,2-b]pyridazin-2-yl)isonicotinamide]	0.22 nM	1.45 nM

Second part, the molecule after the results:

IC50 [1]	IC50 [2]	SMILES
1.06 nM	7.33 nM	O=C(Nc1cn2nc(-c3c(-c4ccc(F)cc4)ncn3C3CCN(C(=O)C4(C(F)(F)F)CCC4)CC3)ccc2n1)c1ccnc(F)c1 [Compound 49, 2-fluoro-N-(6-(4-(4-fluorophenyl)-1-(1-(1-(trifluoromethyl)cyclobutanecarbonyl)piperidin-4-yl)-1H-imidazol-5-yl)imidazo[1,2-b]pyridazin-2-yl)isonicotinamide]
0.278 nM	1.1 nM	O=C(Nc1cn2nc(-c3c(-c4ccc(F)cc4)ncn3C3CCN(C(=O)c4ccsn4)CC3)ccc2n1)c1ccnc(F)c1 [Compound 50, 2-fluoro-N-(6-(4-(4-fluorophenyl)-1-(1-(isothiazole-3-carbonyl)piperidin-4-yl)-1H-imidazol-5-yl)imidazo[1,2-b]pyridazin-2-yl)isonicotinamide]
0.24 nM	2.58 nM	Cc1cc(C(=O)N2CCC(n3cnc(-c4ccc(F)cc4)c3-c3ccc4nc(NC(=O)c5ccnc(F)c5)cn4n3)CC2)no1 [Compound 51, 2-fluoro-N-(6-(4-(4-fluorophenyl)-1-(1-(5-methylisoxazole-3-carbonyl)piperidin-4-yl)-1H-imidazol-5-yl)imidazo[1,2-b]pyridazin-2-yl)isonicotinamide]
0.347 nM	1.44 nM	N#Cc1ccc(C(=O)N2CCC(n3cnc(-c4ccc(F)cc4)c3-c3ccc4nc(NC(=O)c5ccnc(F)c5)cn4n3)CC2)cc1 [Compound 52, N-(6-(1-(1-(4-cyanobenzoyl)piperidin-4-yl)-4-(4-fluorophenyl)-1H-imidazol-5-yl)imidazo[1,2-b]pyridazin-2-yl)-2-fluoroisonicotinamide]
0.191 nM	1.56 nM	O=C(Nc1cn2nc(-c3c(-c4ccc(F)cc4)ncn3C3CCN(C(=O)c4ccc(F)cc4)CC3)ccc2n1)c1ccnc(F)c1 [Compound 53, 2-fluoro-N-(6-(1-(1-(4-fluorobenzoyl)piperidin-4-yl)-4-(4-fluorophenyl)-1H-imidazol-5-yl)imidazo[1,2-b]pyridazin-2-yl)isonicotinamide]
0.446 nM	3.09 nM	CC(C)(C)C(=O)N1CCC(n2cnc(-c3ccc(F)cc3)c2-c2ccc3nc(NC(=O)c4ccnc(F)c4)cn3n2)CC1 [Compound 54, 2-fluoro-N-(6-(4-(4-fluorophenyl)-1-(1-pivaloylpiperidin-4-yl)-1H-imidazol-5-yl)imidazo[1,2-b]pyridazin-2-yl)isonicotinamide]
0.178 nM	1.05 nM	CC(C)(O)C(=O)N1CCC(n2cnc(-c3ccc(F)cc3)c2-c2ccc3nc(NC(=O)c4ccnc(F)c4)cn3n2)CC1 [Compound 55, 2-fluoro-N-(6-(4-(4-fluorophenyl)-1-(1-(2-hydroxy-2-methylpropanoyl)piperidin-4-yl)-1H-imidazol-5-yl)imidazo[1,2-b]pyridazin-2-yl)isonicotinamide]
0.13 nM	0.297 nM	O=C(Nc1cn2nc(-c3c(-c4ccc(F)cc4)ncn3C3CCN(C(=O)c4ccncc4)CC3)ccc2n1)c1ccnc(F)c1 [Compound 56, 2-fluoro-N-(6-(4-(4-fluorophenyl)-1-(1 isonicotinoylpiperidin-4-yl)-1H-imidazol-5-yl)imidazo[1,2-b]pyridazin-2-yl)isonicotinamide]
0.321 nM	3.42 nM	Cc1noc(C)c1C(=O)N1CCC(n2cnc(-c3ccc(F)cc3)c2-c2ccc3nc(NC(=O)c4ccnc(F)c4)cn3n2)CC1 [Compound 57, N-(6-(1-(1-(3,5-dimethylisoxazole-4-carbonyl)piperidin-4-yl)-4-(4-fluorophenyl)-1H-imidazol-5-yl)imidazo[1,2-b]pyridazin-2-yl)-2-fluoroisonicotinamide]
0.233 nM	0.457 nM	CS(=O)(=O)CC(=O)N1CCC(n2cnc(-c3ccc(F)cc3)c2-c2ccc3nc(NC(=O)c4ccnc(F)c4)cn3n2)CC1 [Compound 58, 2-fluoro-N-(6-(4-(4-fluorophenyl)-1-(1-(2-(methylsulfonyl)acetyl)piperidin-4-yl)-1H-imidazol-5-yl)imidazo[1,2-b]pyridazin-2-yl)isonicotinamide]
